Columns and labels:
[1] = Evaluation of a conversion rate to 2-acetylnaphtho[2,3-b]furan-4,9-dione in pH 7.4 phosphate buffer solution; type: physicochemical; settings: 1 umol/L, 37° C.; for % Measurement value (conversion rate to 2-acetylnaphtho[2,3-b]furan-4,9-dione): Phosphate buffer solution (pH 7.4); for % Measurement value of Activated form (conversion rate to 2-acetylnaphtho[2,3-b]furan-4,9-dione): formed from Example 6, phosphate buffer solution (pH 7.4)
Method in brief: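 Compounds at 1 umol/L were incubated at 37° C in human plasma, CD1 mouse plasma or pH 7.4 phosphate buffer, sampled up to 120 minutes, acid/acetonitrile-deproteinised and analysed by LC-MS (ESI positive). Conversion (%) derived from the peak area ratio of the active form to phenytoin internal standard.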

[2] = Solubility test; settings: 50 mmol/L glycine buffer solution (pH 2.0), room temperature, 24 hours shaking
Procedure: A water-soluble prodrug was added into 50 mmol/L glycine buffer solution (pH 2.0). After shaking at room temperature for 24 hours, the mixture was filtered through a membrane filter, and then the filtrate was measured with HPLC.
The measurement condition of HPLC is as described below. HPLC condition column: Acquity UPLC BEH C18, 1.7 um, 50×2.1 mm
Mobile phase: A: 0.1% trifluoroacetic acid-containing water

[3] = Evaluation of a conversion rate to 2-acetylnaphtho[2,3-b]furan-4,9-dione in CD1 mouse plasma; type: in vitro ADME; settings: 1 umol/L; for % Measurement value (conversion rate to 2-acetylnaphtho[2,3-b]furan-4,9-dione): CD1 mouse plasma, 37° C., incubation time 120 min; for % Measurement value of Activated form (conversion rate to 2-acetylnaphtho[2,3-b]furan-4,9-dione): CD1, mouse
Procedure: (§1) For test compounds, the decrease rate of the test compounds and the conversion rate thereof to 2-acetylnaphtho[2,3-b]furan-4,9-dione in human plasma, CD1 mouse plasma, and pH 7.4 phosphate buffer solution were measured.
(§2) Test compounds were incubated at the concentration of 1 umol/L in human plasma (cat. no. 12250210, COSMO BIO), CD1 mouse plasma (cat. no. AP3054, KAC), and phosphate buffer solution at 37° C., and removed at predetermined times (0, 5, 10, 30, 60, and 120 minutes). After protein-removing treatment was performed, they are analyzed with LC-MS. It should be noted that the protein-removing treatment used acetonitrile containing: 10% volume of 1 mol/L hydrochloric acid; 1% volume of 46% citric acid; and phenytoin as an internal standard.
(§3) The measurement condition of LC-MS is as described below. LC-MS condition column: Kinetex 2.6 u PFP 100 A 50×2.1 mm Column temperature: 40° C.
(§4) Mobile phase: A: 0.1% formic acid-containing water
(§5) • B: 0.1% formic acid-containing acetonitrile A/B(min): 95/5(0)→5/95(3)→5/95(4)→95/5(4.1)→95/5(6) Flow rate: 0.4 mL/min Detection: ESI (positive mode) Injection volume: 10 uL
Measurement values are calculated from the peak area ratio in LC-MS between an internal standard material, phenytoin and an active form, 2-acetylnaphtho[2,3-b]furan-4,9-dione, and are expressed in %.
In the same way as Example 6, the incubation time was set as 120 minutes later, and the conversion rate of each of various test compounds to 2-acetylnaphtho[2,3-b]furan-4,9-dione in human plasma, CD1 mouse plasma, and pH 7.4 phosphate buffer solution was measured. A series of the present compounds were confirmed to be converted to 2-acetylnaphtho[2,3-b]furan-4,9-dione in pH 7.4 phosphate buffer solution in addition to human plasma and CD1 mouse plasma. Therefore, a series of the test compounds of the present invention were confirmed to be converted to the activated form via a route other than an enzymatic conversion.

[4] = Evaluation of a conversion rate to 2-acetylnaphtho[2,3-b]furan-4,9-dione in human plasma; type: in vitro ADME; settings: 1 umol/L; for % Measurement value (conversion rate to 2-acetylnaphtho[2,3-b]furan-4,9-dione): Human plasma, 37° C., incubation time 120 min; for % Measurement value of Activated form (conversion rate to 2-acetylnaphtho[2,3-b]furan-4,9-dione): human
Procedure: as §1, §2, §3, §4, §5
In the same way as Example 6, the incubation time was set as 120 minutes later, and the conversion rate of each of various test compounds to 2-acetylnaphtho[2,3-b]furan-4,9-dione in human plasma, CD1 mouse plasma, and pH 7.4 phosphate buffer solution was measured.

Structure (SMILES) | % Measurement value (conversion rate to 2-acetylnaphtho[2,3-b]furan-4,9-dione) ([1]; incubation time 120 min) [%] | Solubility in pH 2.0 buffer solution [2] [mg/mL] | % Measurement value (conversion rate to 2-acetylnaphtho[2,3-b]furan-4,9-dione) [3] [%] | % Measurement value (conversion rate to 2-acetylnaphtho[2,3-b]furan-4,9-dione) [4] [%] | other results
CC(=O)c1cc2c(OC(=O)NCCCCCCCN)c3ccccc3c(O)c2o1.Cl [Example 73] | 66 | 0.1 | 63 | 88 | 
COC(=O)CNCCNC(=O)Oc1c2ccccc2c(OC(=O)NCCNCC(=O)OC)c2oc(C(C)=O)cc12.Cl.Cl [Example 36] | 46 | >5.0 | 66 | 73 | 
CC(=O)c1cc2c(OC(=O)NCCNCC(=O)NCC(=O)O)c3ccccc3c(OC(=O)NCCNCC(=O)NCC(=O)O)c2o1.Cl.Cl [Example 41] | 52 | >5.0 | 81 | 86 | 
COC(=O)[C@@H](N)CNC(=O)Oc1c2ccccc2c(OC(=O)NC[C@H](N)C(=O)OC)c2oc(C(C)=O)cc12.Cl.Cl [Example 32] | 46 | >5.0 | 74 | 81 | 
CC(=O)c1cc2c(OC(=O)NCCCCCN)c3ccccc3c(O)c2o1.Cl [Example 72] | 38 | 2.4 | 42 | 53 | 
CC(=O)c1cc2c(OC(=O)NC3CNC3)c3ccccc3c(OC(=O)NC3CNC3)c2o1.Cl.Cl [Example 10] | 58 | >5.0 | 59 | 89 | 
CC(=O)c1cc2c(OC(=O)NCCCCCCCCN)c3ccccc3c(OC(=O)NCCCCCCCCN)c2o1.Cl.Cl [Example 39] | 31 | >5.0 | 62 | 80 | 
CC(=O)c1cc2c(OC(=O)NCCCCCCCCN)c3ccccc3c(O)c2o1.Cl [Example 75] | 45 | 0.1 | 60 | 79 | 
CC(=O)c1cc2c(OC(=O)NCCCNCC(=O)O)c3ccccc3c(OC(=O)NCCCNCC(=O)O)c2o1.Cl.Cl [Example 40] | 50 | >5.0 | 86 | 89 | 
CC(=O)c1cc2c(OC(=O)NCCCCCNCC(=O)O)c3ccccc3c(OC(=O)NCCCCCNCC(=O)O)c2o1.Cl.Cl [Example 35] | 38 | >5.0 | 70 | 78 | 
CC(=O)c1cc2c(O)c3ccccc3c(OC(=O)NCCNCC(=O)O)c2o1.Cl [Example 78] | 43 | 0.1 | 66 | 54 | 
CC(=O)c1cc2c(OC(=O)NCCCCCNCC(=O)O)c3ccccc3c(O)c2o1.Cl [Example 76] | 57 | 0.4 | 71 | 68 | 
CC(=O)c1cc2c(OC(=O)NCCN)c3ccccc3c(O)c2o1.Cl [Example 18] | 80 |  | 73 | 81 | 
CC(=O)c1cc2c(OC(=O)NCCCCN)c3ccccc3c(OC(=O)NCCCCN)c2o1.Cl.Cl [Example 13] | 13 |  | 50 | 95 | 
CC(=O)c1cc2c(OC(=O)NC3CCC(N)CC3)c3ccccc3c(OC(=O)NC3CCC(N)CC3)c2o1.Cl.Cl (stereo not drawn) [Example 7] | 41 |  | 51 | 69 | 
CC(=O)c1cc2c(OC(=O)NC3CCNCC3)c3ccccc3c(OC(=O)NC3CCNCC3)c2o1.Cl.Cl [Example 8] | 49 |  | 79 | 79 | 
CC(=O)c1cc2c(o1)C(=O)c1ccccc1C2=O [Activated form, 2-acetylnaphtho[2,3-b]furan-4,9-dione, reference compound] |  |  |  |  | % Measurement value of Activated form (conversion rate to 2-acetylnaphtho[2,3-b]furan-4,9-dione) ([1]; incubation time 0 min): 0%; % Measurement value of Activated form (conversion rate to 2-acetylnaphtho[2,3-b]furan-4,9-dione) ([1]; incubation time 5 min): 20%; % Measurement value of Activated form (conversion rate to 2-acetylnaphtho[2,3-b]furan-4,9-dione) ([1]; incubation time 10 min): 29%; % Measurement value of Activated form (conversion rate to 2-acetylnaphtho[2,3-b]furan-4,9-dione) ([1]; incubation time 30 min): 55%; % Measurement value of Activated form (conversion rate to 2-acetylnaphtho[2,3-b]furan-4,9-dione) ([1]; incubation time 60 min): 61%; % Measurement value of Activated form (conversion rate to 2-acetylnaphtho[2,3-b]furan-4,9-dione) ([1]; incubation time 120 min): 78%; % Measurement value of Activated form (conversion rate to 2-acetylnaphtho[2,3-b]furan-4,9-dione) ([3]; 0 min): 0%; % Measurement value of Activated form (conversion rate to 2-acetylnaphtho[2,3-b]furan-4,9-dione) ([3]; 5 min): 23%; % Measurement value of Activated form (conversion rate to 2-acetylnaphtho[2,3-b]furan-4,9-dione) ([3]; 10 min): 31%; % Measurement value of Activated form (conversion rate to 2-acetylnaphtho[2,3-b]furan-4,9-dione) ([3]; 30 min): 63%; % Measurement value of Activated form (conversion rate to 2-acetylnaphtho[2,3-b]furan-4,9-dione) ([3]; 60 min): 67%; % Measurement value of Activated form (conversion rate to 2-acetylnaphtho[2,3-b]furan-4,9-dione) ([3]; 120 min): 76%; % Measurement value of Activated form (conversion rate to 2-acetylnaphtho[2,3-b]furan-4,9-dione) ([4]; 0 min): 0%; % Measurement value of Activated form (conversion rate to 2-acetylnaphtho[2,3-b]furan-4,9-dione) ([4]; 5 min): 24%; % Measurement value of Activated form (conversion rate to 2-acetylnaphtho[2,3-b]furan-4,9-dione) ([4]; 10 min): 31%; % Measurement value of Activated form (conversion rate to 2-acetylnaphtho[2,3-b]furan-4,9-dione) ([4]; 30 min): 48%; % Measurement value of Activated form (conversion rate to 2-acetylnaphtho[2,3-b]furan-4,9-dione) ([4]; 60 min): 64%; % Measurement value of Activated form (conversion rate to 2-acetylnaphtho[2,3-b]furan-4,9-dione) ([4]; 120 min): 71%

Source: US10800752B2, “Substituted naphtho[2,3-b]furans as water-soluble prodrugs for preventing and/or treating cancer” (BOSTON BIOMEDICAL, INC., priority 2015, dated 2020)
